pIC50: −log10 of the molar value. “Also recorded” adds a separate entry of the source.
Assays:
[1] = test system: collagen type I in fibrotic liver; assay: Carbon tetrachloride liver fibrosis mouse model, immunohistological staining for collagen type I; type: in vivo, mice
Method: The ability of Hesperadin to inhibit collagen expressions in a liver fibrosis mouse model was then examined. To induce fibrosis in the liver, mice were injected with carbon tetrachloride, twice a week, for 6 weeks. In control group of mice, they were injected with DMSO/saline, twice a week for 2 weeks. For the experimental group of mice, they were injected with either 50 or 500 μg/kg Hesperadin after chronic carbon tetrachloride treatment. […] In contrast, following chronic carbon tetrachloride treatment, collagen type I was expressed strongly at the lobules, the portal areas, the lining of the sinusoid and around the central veins (FIGS. 12A and 12B). […] In mice of carbon tetrachloride treatment alone, collagen type I was strongly expressed in the periphery of the hepatic sinusoids. Forty female ICR mice (6 weeks old) were acquired from the MOE Key laboratory for Regenerative Medicine. To induce liver fibrosis, the mice were injected i.p. with carbon tetrachloride (1.65 ml/kg body weight suspended in 0.1 ml olive oil) twice per week for a total of 6 weeks. In the control group, mice received carbon tetrachloride injection for 6 weeks followed by DMSO or saline injections, twice a week, for two weeks. In the experimental group, mice received carbon tetrachloride for 6 weeks followed by i.p. injections of 50 μg/kg or 500 μg/kg Hesperadin, twice a week, for two weeks. […] The extent of fibrosis was scored according to Zhou, et al. (5): 1=thickened perivenular collagen and a few thin collagen septa; 2=thin septa with incomplete bridging between portal regions; 3=thin septa and extensive bridging; 4=thickened septa with complete bridging of portal regions and a nodular appearance. Collagen content was measured with a Universal Imaging (Chester, Pa.) analysis system. Briefly, trichrome-stained liver sections were analysed using an Axioskope 50 microscope (CarlZeiss Lab). […] Collagen accumulation was calculated as the percentage of the total field at ×40 magnifications that was stained blue. The arrangement and morphology of the hepatocytes will also be examined and recorded. […]

[2] = test system: cultured bloodstream forms (BF); conditions: read-out: IC50, growth of cultured bloodstream forms (BF); cited from earlier work
[3] = test system: MMP-2 gene expression; assay: Real-time RT-PCR in HSC, MMP-2; type: cell-based, human; conditions: 0.625 μM, FIG. 9
Method: Human Hepatic Stellate cells (LX-2 cell line) (HSCs) were obtained from the Key Lab of Regenerative Medicine, Jinan University, Guangzhou, China, which were maintained in Dulbecco's Modified Eagle Medium (DMEM)+10% fetal calf serum and penicillin-streptomycin (100 unit/ml and 0.1 mg/ml, respectively), in 5% CO2 at 37° C. inside a humidified cell incubator. The culture medium was changed every three days. To test the effects of small molecule Hesperadin on the mouse and human HSCs, the cultures were treated with 0.625 μM of Hesperadin for 48 hrs. […] The proliferation of HSCs was also evaluated by the MTT staining assay with 3-(4,5-Dimethylthiazol-2-yl)-2,5-diphenyltetrazolium bromide). […] The absorbance (at 570 nm) was measured using a BIORAD 3550 Microplate Reader. […]
Collagen type-I, -III and -VI, MMP-2, MMP-9 and TIMP-1 gene expression was determined using quantitative real-time PCR. […] Quantitation of mRNA levels was performed using a SYBR® Premix Ex Taq™ Kit (Takara) in an Applied Biosystems 7900HT Fast Real-Time PCR System. To quantify the amount of specific mRNA in the samples, a standard curve was generated for each PCR run using four amounts of the cDNA synthesized from our HSC cultures and liver samples. […] Data was analyzed using a StatView software (Abacus Concepts Inc) with Student's t-test.

CCS(=O)(=O)Nc1ccc2c(c1)/C(=C(/Nc1ccc(CN3CCCCC3)cc1)c1ccccc1)C(=O)N2 [Hesperadin, (Z)—N-(2-oxo-3-(Phenyl(4-(piperidin-1-ylmethyl)phenylamino)methylene)indolin-5-yl)ethanesulfonamide]
collagen type I in histological liver sections ([1]; 50 μg/kg i.p. twice a week for two weeks after 6 weeks CCl4, mice): less collagen type I evident | collagen type I in histological liver sections ([1]; 500 μg/kg i.p. twice a week for two weeks after 6 weeks CCl4, mice): less collagen type I evident; also recorded: significantly less collagen staining | quantified intensity of collagen type I staining ([1]; 500 μg/kg, FIG. 13, p<0.05): significant reduction in collagen type I production and expression | pIC50 [2]: 7.30 | MMP-2 mRNA expression [3]: inhibited
